# Values quoted from earlier work as cited in US20060251637A1, “Oil-in-water type emulsion containing coenzyme q10 and process for producting the same” (priority 2003, published 2006).
# Details: at 20° C.; decreases with decreasing temperature
smiles,measurement,value
COC1=C(OC)C(=O)C(C/C=C(\C)CC/C=C(\C)CC/C=C(\C)CC/C=C(\C)CC/C=C(\C)CC/C=C(\C)CC/C=C(\C)CC/C=C(\C)CC/C=C(\C)CCC=C(C)C)=C(C)C1=O [coenzyme Q10],Lipid solubility of coenzyme Q10,approximately 1%
